Experimental data taken from ChEMBL document CHEMBL1134157, “General synthesis of alpha-substituted 3-bisaryloxy propionic acid derivatives as specific MMP inhibitors” (Bioorg Med Chem Lett, 2001).
pIC50: −log10 of the molar value.

How the values were obtained:
[1] = target: 72 kDa type IV collagenase (Homo sapiens, UniProt P08253); assay: Inhibition of Matrix metalloprotease-2
Stromelysin-1 = Stromelysin-1 (Homo sapiens, UniProt P08254); assay: Inhibition of Matrix metalloprotease-3
[2] = target: Matrix metalloproteinase-9 (Homo sapiens, UniProt P14780); assay: Inhibition of Matrix metalloprotease-9
[3] = Metabolic bioavailability was determined; assay type: ADME, organism-based; settings: in vivo
Collagenase 3 = Collagenase 3 (Homo sapiens, UniProt P45452); assay: Inhibition of Matrix metalloprotease-13
Interstitial collagenase [4] = target: T1, Interstitial collagenase (Homo sapiens, UniProt P03956); assay: Inhibition of Matrix metalloprotease-1
T1 sequence (P03956 whole entry): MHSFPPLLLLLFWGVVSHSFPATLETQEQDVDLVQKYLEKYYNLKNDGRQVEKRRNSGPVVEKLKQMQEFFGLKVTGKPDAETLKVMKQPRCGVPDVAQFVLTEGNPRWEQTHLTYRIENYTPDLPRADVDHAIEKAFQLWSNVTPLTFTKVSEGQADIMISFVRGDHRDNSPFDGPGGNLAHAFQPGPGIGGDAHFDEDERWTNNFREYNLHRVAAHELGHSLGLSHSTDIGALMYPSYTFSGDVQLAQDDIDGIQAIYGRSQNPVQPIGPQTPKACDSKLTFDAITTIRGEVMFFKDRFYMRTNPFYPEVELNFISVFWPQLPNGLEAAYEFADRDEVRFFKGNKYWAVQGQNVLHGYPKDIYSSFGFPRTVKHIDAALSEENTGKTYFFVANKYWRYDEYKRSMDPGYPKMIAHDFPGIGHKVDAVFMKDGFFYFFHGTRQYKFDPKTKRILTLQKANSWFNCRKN

Homo sapiens = assay: […] absorption in Caco-2 cell line monolayers was determined; assay type: ADME
Interstitial collagenase [5] = target: T1, Interstitial collagenase; assay: Inhibition ofMatrix metalloprotease-1

Chain of Stromelysin-1 (P08254 whole entry): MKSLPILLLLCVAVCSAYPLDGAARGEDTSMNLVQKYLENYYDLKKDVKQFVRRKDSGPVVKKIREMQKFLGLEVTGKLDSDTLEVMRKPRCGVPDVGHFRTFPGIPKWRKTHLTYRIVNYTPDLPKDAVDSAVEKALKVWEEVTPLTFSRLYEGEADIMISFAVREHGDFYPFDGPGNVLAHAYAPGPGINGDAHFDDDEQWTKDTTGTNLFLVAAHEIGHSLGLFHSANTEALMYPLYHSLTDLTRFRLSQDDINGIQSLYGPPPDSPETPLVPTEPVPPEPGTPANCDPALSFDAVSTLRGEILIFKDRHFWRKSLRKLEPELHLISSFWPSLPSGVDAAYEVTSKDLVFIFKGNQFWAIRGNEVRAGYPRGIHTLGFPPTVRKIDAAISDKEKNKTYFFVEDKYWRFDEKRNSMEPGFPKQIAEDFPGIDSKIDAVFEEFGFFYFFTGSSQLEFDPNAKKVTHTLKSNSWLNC
Chain of 72 kDa type IV collagenase (P08253 whole entry): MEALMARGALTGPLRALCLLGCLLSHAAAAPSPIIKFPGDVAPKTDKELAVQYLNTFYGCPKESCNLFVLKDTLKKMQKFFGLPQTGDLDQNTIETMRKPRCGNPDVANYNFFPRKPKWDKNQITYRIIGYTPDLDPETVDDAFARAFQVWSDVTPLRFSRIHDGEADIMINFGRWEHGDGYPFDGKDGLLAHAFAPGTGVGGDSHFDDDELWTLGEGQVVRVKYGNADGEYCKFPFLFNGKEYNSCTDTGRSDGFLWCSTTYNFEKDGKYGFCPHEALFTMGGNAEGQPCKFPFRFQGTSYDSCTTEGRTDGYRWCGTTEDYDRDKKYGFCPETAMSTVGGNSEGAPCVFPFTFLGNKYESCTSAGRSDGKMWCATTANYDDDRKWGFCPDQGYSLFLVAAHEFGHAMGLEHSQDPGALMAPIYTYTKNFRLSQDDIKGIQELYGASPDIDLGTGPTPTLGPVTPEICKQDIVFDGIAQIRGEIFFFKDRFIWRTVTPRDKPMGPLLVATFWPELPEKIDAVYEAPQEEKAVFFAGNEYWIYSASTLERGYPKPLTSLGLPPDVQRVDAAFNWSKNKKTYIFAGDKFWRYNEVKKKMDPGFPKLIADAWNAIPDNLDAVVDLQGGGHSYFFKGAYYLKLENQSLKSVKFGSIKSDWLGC
Chain of Matrix metalloproteinase-9 (P14780 whole entry): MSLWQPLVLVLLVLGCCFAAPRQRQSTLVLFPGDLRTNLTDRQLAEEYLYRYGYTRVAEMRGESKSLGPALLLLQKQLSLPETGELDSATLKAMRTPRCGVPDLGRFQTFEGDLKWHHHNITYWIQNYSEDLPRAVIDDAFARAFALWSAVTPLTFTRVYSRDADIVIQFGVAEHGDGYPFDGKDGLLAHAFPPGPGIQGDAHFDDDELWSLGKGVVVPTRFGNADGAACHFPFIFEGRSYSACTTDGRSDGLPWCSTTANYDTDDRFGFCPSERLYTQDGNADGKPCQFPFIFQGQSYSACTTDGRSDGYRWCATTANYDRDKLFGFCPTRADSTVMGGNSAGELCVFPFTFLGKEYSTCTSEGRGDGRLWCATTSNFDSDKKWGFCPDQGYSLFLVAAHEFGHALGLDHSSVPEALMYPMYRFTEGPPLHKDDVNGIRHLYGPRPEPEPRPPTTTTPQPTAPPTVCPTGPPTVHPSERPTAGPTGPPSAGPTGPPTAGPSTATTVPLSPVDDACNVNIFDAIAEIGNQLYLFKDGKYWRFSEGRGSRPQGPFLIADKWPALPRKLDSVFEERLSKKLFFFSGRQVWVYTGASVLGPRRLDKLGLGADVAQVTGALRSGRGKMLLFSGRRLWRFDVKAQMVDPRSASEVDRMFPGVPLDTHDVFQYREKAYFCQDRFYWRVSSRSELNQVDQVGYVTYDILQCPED

Row | SMILES | pIC50 [1] | pIC50 (Stromelysin-1) | pIC50 [2] | pIC50 (Interstitial collagenase [4]) | A (Homo sapiens) [%] | MF [3] [%] | pIC50 (Collagenase 3) | pIC50 (Interstitial collagenase [5])
1 | O=C(NO)C(CCn1nnc2ccccc2c1=O)COCCc1ccc(-c2ccc(Cl)cc2)cc1 (stereo not drawn) | 7.60 | 8.37 | 8.44 |  |  | 23 | 7.17 | 
2 | O=C(NO)C(CCn1ncc2ccccc2c1=O)COc1ccc(-c2ccccc2)cc1 (stereo not drawn) | 8.22 | 7.21 | 7.48 | < 5.00 |  | 13 | 7.00 | 
3 | O=C(NO)C(CCN1C(=O)c2ccccc2S1(=O)=O)COc1ccc(-c2ccccc2)cc1 (stereo not drawn) | 8.15 | 7.64 | 7.80 | < 4.00 |  | 30 | 7.38 | 
4 | O=C(NO)C(CCn1nnc2ccccc2c1=O)COc1ccc(-c2ccc(Cl)cc2)cc1 (stereo not drawn) | 10.00 | 8.49 | 9.22 | 7.13 | 75 | 35 | 10.80 | 
5 | N#Cc1ccc(-c2ccc(OCC(CCn3nnc4ccccc4c3=O)C(=O)NO)cc2)cc1 (stereo not drawn) | 9.40 | 8.96 | 9.22 | 6.94 | 96 | 42 | 9.22 | 
6 | CN1C(=O)N(CCC(COc2ccc(-c3ccccc3)cc2)C(=O)NO)C(=O)C1(C)C (stereo not drawn) | 7.44 | 7.15 | 6.70 |  |  | 17 | 7.08 | < 6.00
7 | O=C(NO)C(CCn1nnc2ccccc2c1=O)COc1ccc(-c2ccccc2)cc1 (stereo not drawn) | 9.30 | 8.30 | 9.00 | 7.51 | 80 | 29 | 8.52 | 
8 | N#Cc1ccc(-c2ccc(OCCC(=O)NO)cc2)cc1 | 7.31 | 7.33 | 6.18 | < 8.00 |  |  | 7.19 | 

Second part, led by results:

Row | pIC50 [1] | pIC50 (Stromelysin-1) | pIC50 [2] | pIC50 (Interstitial collagenase [4]) | A (Homo sapiens) [%] | SMILES | MF [3] [%] | pIC50 (Collagenase 3) | pIC50 (Interstitial collagenase [5])
9 | 7.62 | 7.16 | 7.60 |  |  | O=C(NO)C(CCn1c(=O)[nH]c2ccccc2c1=O)COc1ccc(-c2ccccc2)cc1 (stereo not drawn) | 52 | 7.19 | 
10 | 8.52 | 7.80 | 8.30 | 6.11 |  | O=C(NO)C(CCN1C(=O)c2ccccc2C1=O)COc1ccc(-c2ccccc2)cc1 (stereo not drawn) |  | 8.15 | 
11 | 7.09 | 6.50 | 6.66 | < 6.00 |  | O=C(NO)C(CCCN1C(=O)c2ccccc2C1=O)COc1ccc(-c2ccccc2)cc1 (stereo not drawn) |  |  | 
